Key:
D816V Kit = D816V Kit (Homo sapiens (Human), UniProt P10721, D816V); assay: Kit D816V assay at Km (Caliper electrophoretic mobility shift); assay type: biochemical; conditions: for IC50: D816V Kit 0.5 nM, 15 uM ATP (Km), 1 uM Srctide, 25 C, 90 minutes, read-out: INH-KITD816V ENZ-KM IC50 (nM) (Num); for times more potent against the D816V mutant than against the wild-type Kit: D816V Kit versus wild-type Kit, enzyme assays at Km
Procedure: (§1) In order to assess the activity of chemical compounds against the relevant kinase of interest, the Caliper LifeSciences electrophoretic mobility shift technology platform is used. Fluorescently labeled substrate peptide is incubated in the presence of kinase and ATP so that a […] proportion of the peptide is phosphorylated. At the end of the reaction, the mix of phosphorylated (product) and non-phosphorylated (substrate) peptides are passed through the microfluidic system of the Caliper EZ Reader 2, under an applied potential difference. The presence of the phosphate group on the product peptide provides a difference in mass and charge between those of the substrate peptide, resulting in a separation of the substrate and product pools in the sample. As the pools pass a LEDS within the instrument, these pools are detected and resolved as separate peaks. The ratio between these peaks therefore reflects the activity of the chemical matter at that concentration in that well, under those conditions.
(§2) The reaction was stopped by the addition of 70 ul of Stop buffer (100 mM HEPES pH 7.5, 0.015% Brij 35, 35 mM EDTA and 0.2% of Coating Reagent 3 (Caliper Lifesciences)). The plate was then read on a Caliper EZReader 2 (protocol settings: −1.9 psi, upstream voltage −700, downstream voltage −3000, post sample sip 35 s).

wild type Kit = wild type Kit (Homo sapiens (Human), UniProt P10721); assay: Kit wild type assay at Km (Caliper electrophoretic mobility shift); assay type: biochemical; conditions: wild type Kit 2 nM, 400 uM ATP (Km), 1 uM Srctide, 25 C, 90 minutes; read-out: INH-KITWT ENZ-KM IC50 (nM) (Num)
Procedure: as §1, §2

Chain of wild type Kit (P10721 26-976): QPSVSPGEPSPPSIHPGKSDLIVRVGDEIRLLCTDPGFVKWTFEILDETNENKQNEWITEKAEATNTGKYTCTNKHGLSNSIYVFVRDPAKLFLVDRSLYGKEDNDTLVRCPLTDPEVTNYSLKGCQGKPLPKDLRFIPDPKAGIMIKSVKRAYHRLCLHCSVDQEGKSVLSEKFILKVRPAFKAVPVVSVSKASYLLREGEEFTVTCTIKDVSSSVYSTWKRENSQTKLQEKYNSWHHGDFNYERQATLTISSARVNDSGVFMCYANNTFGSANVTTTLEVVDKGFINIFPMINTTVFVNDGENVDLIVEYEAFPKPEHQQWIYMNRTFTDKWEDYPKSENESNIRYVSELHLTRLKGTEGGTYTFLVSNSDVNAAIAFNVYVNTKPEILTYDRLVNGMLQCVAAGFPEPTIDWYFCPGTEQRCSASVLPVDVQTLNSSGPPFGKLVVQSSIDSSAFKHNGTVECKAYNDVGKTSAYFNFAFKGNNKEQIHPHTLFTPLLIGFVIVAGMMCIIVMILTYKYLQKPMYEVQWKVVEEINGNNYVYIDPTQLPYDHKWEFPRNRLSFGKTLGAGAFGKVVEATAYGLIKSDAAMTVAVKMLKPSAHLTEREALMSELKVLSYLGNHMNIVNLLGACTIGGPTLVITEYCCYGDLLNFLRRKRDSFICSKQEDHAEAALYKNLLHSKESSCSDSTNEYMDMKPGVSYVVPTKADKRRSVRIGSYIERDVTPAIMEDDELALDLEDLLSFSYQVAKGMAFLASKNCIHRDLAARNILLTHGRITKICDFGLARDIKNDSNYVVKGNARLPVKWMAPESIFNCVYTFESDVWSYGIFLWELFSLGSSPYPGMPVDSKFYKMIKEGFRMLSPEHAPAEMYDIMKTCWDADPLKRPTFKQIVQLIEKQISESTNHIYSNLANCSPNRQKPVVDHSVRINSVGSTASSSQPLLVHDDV
Chain of D816V Kit (P10721 26-976 D816V): as the sequence (P10721 26-976) above, with D791V counted along it

| SMILES | IC50 (D816V Kit) [nM] | IC50 (wild type Kit) [nM] | times more potent against the D816V mutant than against the wild-type Kit (D816V Kit) |
| --- | --- | --- | --- |
| c1ccc(Cc2cnc(N3CCN(c4ncnc5c4CNC5)CC3)nc2)cc1 [Compound 2] | > 100 | > 1000 |  |
| COc1cc2ncnc(N3CCN(c4ncc(OCC5CC5)cn4)CC3)c2cc1OC [Compound 6] | > 100 | > 1000 |  |
| COc1cc2ncnc(N3CCN(c4ncc(-c5ccccc5)cn4)CC3)c2cc1OC [Compound 9] | > 100 | > 1000 |  |
| COc1ccc2ncnc(N3CCN(c4ncc(OCc5ccccc5)cn4)CC3)c2c1 [Compound 10] | > 100 | > 1000 |  |
| COc1cc2ncnc(N3CCN(c4nccc(Cc5ccccc5)n4)CC3)c2cc1OC [Compound 12] | > 100 | > 1000 |  |
| COc1cc2ncnc(N3CCN(c4ncc(Nc5ccncc5)cn4)CC3)c2cc1OC [Compound 17] | > 100 | > 1000 |  |
| COc1cc2ncnc(N3CCN(c4ncc(OCC5CCCC5)cn4)CC3)c2cc1OC [Compound 18] | > 100 | > 1000 | at least 100 times |
| COc1cc2ncnc(N3CCN(c4ncc(-c5ccc(C#N)cc5)cn4)CC3)c2cc1OC [Compound 19] | > 100 | > 1000 | less than 5 times |
| COc1cc2ncnc(N3CCN(c4ncc(Cc5ccccc5)cn4)C(=O)C3)c2cc1OC [Compound 21] | > 100 | > 1000 | less than 5 times |
| COc1cc2ncnc(N3CCN(c4ncc(Cc5ccccc5)cn4)C[C@@H]3C)c2cc1OC [Compound 27] | > 100 | > 1000 |  |
| COc1cc2ncnc(N3CCN(c4ncc(Cc5ccccc5)cn4)C[C@H]3C)c2cc1OC [Compound 28] | > 100 | > 1000 | less than 5 times |
| COc1cc2ncnc(N3CCN(c4ncc(NCc5ccccc5)cn4)CC3)c2cc1OC [Compound 34, N-benzyl-2-(4-(6,7-dimethoxyquinazolin-4-yl)piperazin-1-yl)pyrimidin-5-amine] | 10 to 100 | 100 to 1000 |  |
| COc1cc2ncnc(N3CCN(c4ncc(Br)c(OC)n4)CC3)c2cc1OC [Compound 41] | > 100 | > 1000 | less than 5 times |
| COc1cc2ncnc(N3CCN(c4ncc(OCc5ccsc5)cn4)CC3)c2cc1OC [Compound 44] | 10 to 100 | 100 to 1000 |  |
| COc1cc2ncnc(N3CCN(c4ncc(Cc5cccc(C#N)c5)cn4)CC3)c2cc1OC [Compound 46] | 10 to 100 | 100 to 1000 |  |
| COc1cc2ncnc(N3CCN(c4ncc(Nc5ccc(C#N)cc5)cn4)CC3)c2cc1OC [Compound 47] | 10 to 100 | > 1000 | at least 100 times |
| COc1cc2ncnc(N3C[C@H]4CC[C@@H](C3)N4c3ncc(Cc4ccccc4)cn3)c2cc1OC [Compound 48, 4-((1R,5S)-8-(5-Benzylpyrimidin-2-yl)-3,8-diazabicyclo[3.2.1]octan-3-yl)-6,7-dimethoxyquinazoline] | 1.01 to 10 | 11 to 100 |  |
| COc1cc2ncnc(N3CCN(c4ncc(N5CCc6ccccc65)cn4)CC3)c2cc1OC [Compound 49] | 10 to 100 | 100 to 1000 |  |
| c1ccc(Cc2cnc(N3CCN(c4ncnc5c4CN(CC4CCNCC4)C5)CC3)nc2)cc1 [Compound 50] | > 100 | > 1000 | less than 5 times |
| COc1cc2ncnc(N3CCN(c4ncc(C(=O)Nc5ccccc5)cn4)CC3)c2cc1OC [Compound 51] | 10 to 100 | > 1000 |  |
| COc1cc2ncnc(N3CCN(c4ncc(NCc5ccc(C)cc5)cn4)CC3)c2cc1OC [Compound 53] | 10 to 100 | 100 to 1000 |  |
| COc1cc2ncnc(N3CCN(c4ncc(NCc5ccccc5C)cn4)CC3)c2cc1OC [Compound 54] | 10 to 100 | 100 to 1000 |  |
| COc1cc2ncnc(N3CCN(c4ncc(NCc5cccc(C)c5)cn4)CC3)c2cc1OC [Compound 55] | 10 to 100 | > 1000 |  |
| COc1cc2ncnc(N3CCN(c4ncc(NC(C)c5ccccc5)cn4)CC3)c2cc1OC (stereo not shown) [Compound 56] | 10 to 100 | > 1000 |  |
| COc1cc2ncnc(N3CCN(c4ncc(OCc5ccccc5)cn4)[C@H](C)C3)c2cc1OC [Compound 60] | 10 to 100 | 100 to 1000 |  |
| COc1cc2ncnc(N3CCN(c4ncc(OCc5cccc(C)c5)cn4)CC3)c2cc1OC [Compound 61] | 10 to 100 | 100 to 1000 |  |
| COc1cc2ncnc(N3CCN(c4ncc(OCc5ccc(C)cc5)cn4)CC3)c2cc1OC [Compound 62] | 10 to 100 | > 1000 | at least 100 times |
| COc1cc2ncnc(N3CCN(c4ncc(OC(C)c5ccccc5)cn4)CC3)c2cc1OC (stereo not shown) [Compound 63] | 10 to 100 | 100 to 1000 |  |
| COc1cc2c(N3CCN(c4ncc(Cc5ccccc5)cn4)CC3)ncnc2cc1OC(F)F [Compound 72] | 10 to 100 |  |  |
| COc1cc2ncnc(N3CCN(c4ncc(NCc5ccc6c(c5)OCO6)cn4)CC3)c2cc1OC [Compound 83] | > 100 |  |  |

Results, then the compound that gave them:

| IC50 (D816V Kit) [nM] | IC50 (wild type Kit) [nM] | times more potent against the D816V mutant than against the wild-type Kit (D816V Kit) | SMILES |
| --- | --- | --- | --- |
| 10 to 100 | > 1000 |  | COc1ccc2c(N3CCN(c4ncc(OCc5ccccc5)cn4)CC3)ncnc2c1 [Compound 8] |
| 1.01 to 10 | 11 to 100 |  | COc1cc2ncnc(N3CCN(c4ncc(Oc5ccccc5)cn4)CC3)c2cc1OC [Compound 14, 6,7-dimethoxy-4-(4-(5-phenoxypyrimidin-2-yl)piperazin-1-yl)quinazoline] |
| 10 to 100 | 100 to 1000 |  | COc1cc2ncnc(N3CCN(c4ncc(Nc5ccccn5)cn4)CC3)c2cc1OC [Compound 15] |
| 10 to 100 | 100 to 1000 |  | COc1cc2ncnc(N3CCN(c4ncc(Nc5cccnc5)cn4)CC3)c2cc1OC [Compound 16] |
| 10 to 100 | > 1000 | at least 100 times | COc1cc2ncnc(N3CCN(c4ncc(Cc5ccccc5)cn4)CC3)c2cc1C(N)=O [Compound 20] |
| 1.01 to 10 | 100 to 1000 |  | COc1cc2ncnc(N3CCN(c4ncc(CCc5ccccc5)cn4)CC3)c2cc1OC [Compound 24] |
| 10 to 100 | 100 to 1000 |  | COc1cc2ncnc(N3CCN(c4ncc(Cc5ccccc5C)cn4)CC3)c2cc1OC [Compound 25] |
| 10 to 100 | 100 to 1000 |  | COc1cc2ncnc(N3CCN(c4ncc(Cc5ccccc5)cn4)C(C)C3)c2cc1OC (stereo not shown) [Compound 26] |
| < 1 | < 10 |  | COc1cc2ncnc(N3CCN(c4ncc(Cc5ccccc5)c(N)n4)CC3)c2cc1OC [Compound 29] |
| 1.01 to 10 | 100 to 1000 |  | COc1cc2ncnc(N3CCN(c4ncc(Nc5ccc(C)cc5)cn4)CC3)c2cc1OC [Compound 31] |
| 10 to 100 | 100 to 1000 |  | COc1cc2ncnc(N3CCN(c4ncc(Nc5ccccc5C)cn4)CC3)c2cc1OC [Compound 32] |
| 10 to 100 | 100 to 1000 |  | COc1cc2ncnc(N3CCN(c4ncc(Nc5cccc(C)c5)cn4)CC3)c2cc1OC [Compound 33] |
| 1.01 to 10 | 100 to 1000 |  | COc1cc2ncnc(N3CCN(c4ncc(OCc5ccccc5)cn4)CC3)c2cc1OC [Compound 37, 4-(4-(5-(benzyloxy)pyrimidin-2-yl)piperazin-1-yl)-6,7-dimethoxyquinazoline] |
| 1.01 to 10 | 11 to 100 |  | COc1cc2ncnc(N3CCN(c4ncc(Cc5ccc(F)cc5)cn4)CC3)c2cc1OC [Compound 38, 4-(4-(5-(4-fluorobenzyl)pyrimidin-2-yl)piperazin-1-yl)-6,7-dimethoxyquinazoline] |
| 1.01 to 10 | 100 to 1000 |  | COc1cc2ncnc(N3CCN(c4ncc(Cc5cccc(F)c5)cn4)CC3)c2cc1OC [Compound 39] |
| 1.01 to 10 | 100 to 1000 |  | COc1cc2ncnc(N3CCN(c4ncc(Sc5ccccc5)cn4)CC3)c2cc1OC [Compound 40] |
| 1.01 to 10 | 100 to 1000 |  | COc1cc2ncnc(N3CCN(c4ncc(OCc5cccs5)cn4)CC3)c2cc1OC [Compound 43] |
| 1.01 to 10 | 100 to 1000 |  | COc1cc2ncnc(N3CCN(c4ncc(Cc5ccc(C#N)cc5)cn4)CC3)c2cc1OC [Compound 45] |
| 1.01 to 10 | 11 to 100 |  | COc1cc2ncnc(N3CCN(c4ncc(N(C)Cc5ccccc5)cn4)CC3)c2cc1OC [Compound 52] |
| < 1 | 11 to 100 | at least 100 times | COc1cccc(Cc2cnc(N3CCN(c4ncnc5cc(OC)c(OC)cc45)CC3)nc2)c1 [Compound 57] |
| 1.01 to 10 | 11 to 100 |  | COc1ccc(Cc2cnc(N3CCN(c4ncnc5cc(OC)c(OC)cc45)CC3)nc2)cc1 [Compound 58] |
| 1.01 to 10 | 100 to 1000 |  | COc1cc2ncnc(N3CCN(c4ncc(O[C@H](C)c5ccccc5)cn4)CC3)c2cc1OC [Compound 59] |
